{"source": "patent US20060247156A1", "about": "“Use of neuropeptides for ligament, cartilage, and bone healing” (priority 2004, published 2006)", "key": {"intact MCL": {"tested_on": "intact MCL", "details": "guanethidine 40 mg/kg/day, 10 days", "procedure": "Ligament thickness and width was measured optically, and MCL area was estimated with elliptical geometry. […] For strain measurements, optical markers were placed onto the ligament tissue near the insertion sites. A small preload of 0.1N was applied to the ligaments in order to obtain a uniform starting point. The ligaments were then preconditioned to 1% strain for 10 cycles.\nThe mechanical properties that were examined in this study were maximum force, ultimate stress, strain at failure, elastic modulus, and area."}, "[1]": {"tested_on": "sympathetic nervous system", "details": "rat, in vivo", "method": "For all groups, anesthesia (isofluorane 0.5-3%) was initiated in an induction chamber and maintained with a facemask. […] Both groups were survived for 10 days following implantation of the pump at which time the animals were euthanized with intraperitoneal injection of pentobarbitone. Throughout the study only one ligament per animal was used for a particular experimental test protocol (described below).\nStatistical analysis was performed using an unpaired t-test (alpha=0.05) to compare differences between the control and treatment groups."}, "MCL": {"tested_on": "MCL", "experiment": "MCL organ culture with guanethidine, mechanical testing", "details": "organ culture 10 days with guanethidine in media", "method": "Bilateral MCLs (n=6) including intact femoral and tibial segments were aseptically harvested from untreated rats.\nDuring and after harvest, tissues were rinsed in sterile phosphate buffered saline (PBS) containing penicillin (100 U/mL), streptomycin (100 μg/mL), and fungizone (0.25 μg/mL). Bone blocks were trimmed in order to minimize the amount of bone marrow, which may alter the culture environment. Tissues were then cultured in Dulbecco's Modified Eagle's Medium (DMEM) supplemented with 10% fetal bovine serum, nonessential amino acids (0.1 mM), L-gutamine (4 mM), penicillin (100 U/mL), streptomycin (100 μg/mL), and fungizone (0.25 μg/mL). […] The cultures were maintained in an incubator at 37° C. and 5% CO2. Media were changed every 48 hours at which time tissues were rinsed with sterile PBS to reduce drug carryover into the fresh media containing the treatment drug or equivalent volume of carrier. Organ culture was maintained for 10 days after which time the MCLs were tested mechanically in the same manner as the in vivo treatment group (described below)."}}, "data": [{"smiles": "N=C(N)NCCN1CCCCCCC1", "note": "[guanethidine]", "values": [{"measurement": "mean ultimate tensile force", "setting": "intact MCL", "result": "not significantly decreased"}, {"measurement": "strain at failure", "setting": "intact MCL", "result": "8.1±0.4", "unit": "%"}, {"measurement": "wet weight", "setting": "intact MCL; tissue hydration", "result": "6.8 ± 0.7", "unit": "g"}, {"measurement": "abnormalities in movement, body weight, or behavior", "setting": "[1]", "result": "No abnormalities"}, {"measurement": "ultimate stress", "setting": "MCL", "result": "70.29±19.15", "unit": "MPa"}]}]}
